Experimental data from the supplement of paper PMC9262897, “Low-cost anti-mycobacterial drug discovery using engineered E. coli” (Nature Communications, 2022).
± gives the standard deviation of the averaged measurements.

How the values were obtained:
∆mdtK = assay: growth (OD600 after 24 h); higher = more growth
Procedure: (§1)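 E. coli BW25113 ΔaraC (Efflux+) or efflux-pump deletion strains (ΔtolC ΔentC, ΔemrE, ΔmdtI, ΔyeeO, ΔmdtK, ΔmdtM) diluted 1:100 in M9-based medium with a drug dilution series. Growth is read as OD600 after 24 h; 3 biological replicates.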

∆yeeO = assay: growth (OD600 after 24 h); higher = more growth
Procedure: as §1

Efflux+ = assay: growth (OD600 after 24 h); higher = more growth
Procedure: as §1

∆mdtM = assay: growth (OD600 after 24 h); higher = more growth
Procedure: as §1

∆emrE = assay: growth (OD600 after 24 h); higher = more growth
Procedure: as §1

∆tolC ∆entC = assay: growth (OD600 after 24 h); higher = more growth
Procedure: as §1

∆mdtI = assay: growth (OD600 after 24 h); higher = more growth
Procedure: as §1

[1] = system: E. coli TESEC strain (Mtb target enzyme); assay: growth (OD600 after 10 h); higher = more growth
Procedure: (§2)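 Chemical-genetic validation profiles: TESEC strains (Mtb Asd or DapB, arabinose-inducible) or the wild-type control grown in a two-dimensional dilution series of drug (µM) and arabinose. Growth is read as OD600 after 10 h in triplicate.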

[2] = system: E. coli wild-type control; assay: growth (OD600 after 10 h); higher = more growth
Procedure: as §2

Nc1nc2ccc(OC(F)(F)F)cc2s1 [Riluzole]
growth
Settings	Efflux+	∆emrE	∆mdtI	∆mdtK	∆mdtM	∆tolC ∆entC	∆yeeO
drug 16 µM	1.09 ± 0.017	0.961 ± 0.026	1.06 ± 0.02	0.831 ± 0.072	0.802 ± 0.01	1.05 ± 0.014	0.958 ± 0.011
drug 31 µM	1.038 ± 0.0013	1.06 ± 0.066	1.045 ± 0.0025	0.799 ± 0.032	0.79 ± 0.015	1.09 ± 0.018	0.905 ± 0.046
drug 62 µM	0.997 ± 0.033	1.08 ± 0.037	1.01 ± 0.021	0.788 ± 0.016	0.776 ± 0.016	1.02 ± 0.023	0.851 ± 0.057
drug 125 µM	0.978 ± 0.019	1.12 ± 0.039	0.981 ± 0.029	0.749 ± 0.054	0.74 ± 0.02	0.97 ± 0.018	0.909 ± 0.018
drug 250 µM	0.973 ± 0.024	1.09 ± 0.053	0.9767 ± 0.0089	0.741 ± 0.017	0.785 ± 0.043	0.634 ± 0.019	0.857 ± 0.035
drug 500 µM	0.74 ± 0.04	0.8264 ± 0.0056	0.634 ± 0.072	0.669 ± 0.011	0.527 ± 0.042	0.0507 ± 0.0015	0.703 ± 0.019

N=C(N)c1ccc(OCCCCCOc2ccc(C(=N)N)cc2)cc1 [Pentamidine]
growth
Settings	Efflux+	∆emrE	∆mdtI	∆mdtK	∆mdtM	∆tolC ∆entC	∆yeeO
drug 6.25 µM	0.978 ± 0.016	0.879 ± 0.034	1.003 ± 0.0084	0.814 ± 0.035	0.809 ± 0.015	0.996 ± 0.023	0.845 ± 0.043
drug 12.5 µM	0.894 ± 0.011	0.8324 ± 0.0056	0.936 ± 0.028	0.77 ± 0.05	0.7967 ± 0.0071	0.854 ± 0.033	0.833 ± 0.013
drug 25 µM	0.88 ± 0.021	0.826 ± 0.035	0.89493 ± 0.00061	0.68 ± 0.07	0.779 ± 0.013	0.804 ± 0.018	0.79 ± 0.029
drug 50 µM	0.805 ± 0.034	0.811 ± 0.041	0.837 ± 0.037	0.513 ± 0.21	0.745 ± 0.015	0.709 ± 0.02	0.758 ± 0.037
drug 100 µM	0.635 ± 0.0072	0.739 ± 0.024	0.655 ± 0.039	0.367 ± 0.03	0.614 ± 0.013	0.389 ± 0.023	0.637 ± 0.023
drug 200 µM	0.337 ± 0.06	0.615 ± 0.0068	0.352 ± 0.032	0.212 ± 0.034	0.502 ± 0.097	0.0928 ± 0.015	0.34 ± 0.014

CC/C(=C(/CC)c1ccc(O)cc1)c1ccc(O)cc1 [Diethylstilbestrol] (TESEC target enzyme: Mtb Asd)
growth
Settings	drug 0.7 µM	drug 1.5 µM	drug 3.5 µM	drug 7.8 µM	drug 17.6 µM	drug 39.5 µM	drug 88.9 µM
[1], arabinose 15560 nM	0.236 ± 0.0089	0.214 ± 0.012	–	–	–	–	–
[1], arabinose 28008 nM	0.223 ± 0.071	0.157 ± 0.057	–	–	–	–	–
[1], arabinose 50414 nM	0.238 ± 0.078	0.191 ± 0.0078	–	–	–	–	–
[1], arabinose 90744 nM	0.252 ± 0.091	0.218 ± 0.026	–	–	–	–	–
[1], arabinose 163340 nM	0.254 ± 0.047	0.227 ± 0.018	–	–	–	–	–
[1], arabinose 294012 nM	0.29 ± 0.1	0.222 ± 0.017	–	–	–	–	–
[1], arabinose 529221 nM	0.207 ± 0.011	0.214 ± 0.018	–	–	–	–	–
[1], arabinose 952599 nM	0.2 ± 0.011	0.228 ± 0.0099	–	–	–	–	–
[1], arabinose 1714678 nM	0.2038 ± 0.002	0.208 ± 0.026	–	–	–	–	–
[1], arabinose 3086420 nM	0.177 ± 0.0086	0.202 ± 0.029	–	–	–	–	–
[1], arabinose 5555556 nM	0.168 ± 0.053	0.198 ± 0.023	–	–	–	–	–
[1], arabinose 10000000 nM	0.174 ± 0.013	0.184 ± 0.013	–	–	–	–	–
[2], arabinose 15560 nM	0.278 ± 0.025	0.244 ± 0.02	0.211 ± 0.021	0.134 ± 0.021	0.106 ± 0.062	0.077 ± 0.043	–
[2], arabinose 28008 nM	0.283 ± 0.023	0.225 ± 0.016	0.192 ± 0.0041	0.208 ± 0.13	0.109 ± 0.08	0.0887 ± 0.052	–
[2], arabinose 50414 nM	0.271 ± 0.046	0.23 ± 0.0031	0.192 ± 0.008	0.149 ± 0.038	0.185 ± 0.16	0.0973 ± 0.035	–
[2], arabinose 90744 nM	0.282 ± 0.023	0.238 ± 0.016	0.205 ± 0.007	0.155 ± 0.033	0.0906 ± 0.065	0.075 ± 0.027	–
[2], arabinose 163340 nM	0.245 ± 0.024	0.22 ± 0.013	0.207 ± 0.0089	0.163 ± 0.052	0.11 ± 0.03	0.108 ± 0.053	–
[2], arabinose 294012 nM	0.224 ± 0.025	0.222 ± 0.0093	0.201 ± 0.008	0.151 ± 0.035	0.0517 ± 0.0034	0.0476 ± 0.00066	–
[2], arabinose 529221 nM	0.189 ± 0.013	0.16 ± 0.007	0.141 ± 0.015	0.123 ± 0.014	0.0936 ± 0.042	0.139 ± 0.059	–
[2], arabinose 952599 nM	0.139 ± 0.03	0.112 ± 0.0031	0.103 ± 0.013	0.132 ± 0.01	0.0957 ± 0.02	0.0506 ± 0.0019	0.108 ± 0.054
[2], arabinose 1714678 nM	0.118 ± 0.0057	0.104 ± 0.0052	0.106 ± 0.0022	0.112 ± 0.017	0.124 ± 0.024	0.147 ± 0.1	0.119 ± 0.015
[2], arabinose 3086420 nM	0.119 ± 0.032	0.108 ± 0.0038	0.114 ± 0.0031	0.103 ± 0.0093	0.0984 ± 0.038	0.114 ± 0.03	0.111 ± 0.048
[2], arabinose 5555556 nM	0.128 ± 0.019	0.112 ± 0.0045	0.119 ± 0.0052	0.119 ± 0.0086	0.0951 ± 0.04	0.0913 ± 0.011	0.0621 ± 0.019
[2], arabinose 10000000 nM	0.122 ± 0.01	0.118 ± 0.015	0.1329 ± 0.00094	0.118 ± 0.017	0.13 ± 0.013	0.117 ± 0.049	–
